Measured values as given in patent publication US9624169B2, “Aryl- and heteroaryl-pyrrolidine-2-carboxamide compounds” (SciFluor Life Sciences, Inc., priority 2015, dated 2017).

Tested on: formalin induced pain
Test: Formalin induced pain model in rats (flinching, lifting, licking, biting and trembling of injected paw)
Settings: for Effect on the flinching response (in words): at tested dose levels; for Effect on duration of paw lifting post-formalin injection (in words): all dose levels; for Effect on all testing behaviors (lifting, licking, biting and trembling) post-formalin injection (in words): all tested dose levels
[1] = Phase 1, group 4, 3 mg/ml (Table 2: 3 mg/kg P.O.)
[2] = Phase 1, group 5, 10 mg/ml (Table 2: 10 mg/kg P.O.)
[3] = Phase 1, group 6, 30 mg/ml (Table 2: 30 mg/kg P.O.)
[4] = Phase 2, group 4, 3 mg/ml (Table 2: 3 mg/kg P.O.)
[5] = Phase 2, group 5, 10 mg/ml (Table 2: 10 mg/kg P.O.)
[6] = Phase 2, group 6, 30 mg/ml (Table 2: 30 mg/kg P.O.)
[7] = phase 1, control compounds, Compound 1A at 3 mg/kg
[8] = Phase 1, group 3, 100 mg/ml (Table 2: 100 mg/kg P.O.)
[9] = Phase 2, group 3, 100 mg/ml (Table 2: 100 mg/kg P.O.)
[10] = Phase 1, group 2, 1 mg/ml (Table 2: 1 mg/kg I.P.)
[11] = Phase 2, group 2, 1 mg/ml (Table 2: 1 mg/kg I.P.)

NC(=O)[C@@H]1CC[C@H](c2ccc(OC(c3ccccc3F)C(F)(F)F)cc2)N1 (stereo partly drawn) [Compound 1A, (2S,5R)-5-(4-(2,2,2-trifluoro-1-(2-fluorophenyl)ethoxy)phenyl)pyrrolidine-2-carboxamide]
Group Mean of Average Duration of Licking, Biting and Trembling [1]: 34.2 ± 26.8 No. per 5 min | Group Mean of Average Duration of Lifting [1]: 37.1 ± 43.8 No. per 5 min | Group Mean of Average Flinching Response [1]: 15.2 ± 11.3 No. per 5 min | Group Mean of Total Testing Behavior [1]: 71.3 ± 56.4 No. per 5 min | Group Mean of Average Duration of Licking, Biting and Trembling [2]: 21.9 ± 25.1 No. per 5 min | Group Mean of Average Duration of Lifting [2]: 17.3 ± 22.8 No. per 5 min | Group Mean of Average Flinching Response [2]: 10.5 ± 3.7 No. per 5 min | Group Mean of Total Testing Behavior [2]: 39.2 ± 27.5 No. per 5 min | Group Mean of Average Duration of Licking, Biting and Trembling [3]: 17.4 ± 13.0 No. per 5 min | Group Mean of Average Duration of Lifting [3]: 21.3 ± 25.2 No. per 5 min | Group Mean of Average Flinching Response [3]: 22.0 ± 7.7 No. per 5 min | Group Mean of Total Testing Behavior [3]: 38.7 ± 31.8 No. per 5 min | Group Mean of Average Duration of Licking, Biting and Trembling [4]: 32.6 ± 27.6 No. per 5 min | Group Mean of Average Duration of Lifting [4]: 8.2 ± 10.4 No. per 5 min | Group Mean of Average Flinching Response [4]: 16.0 ± 10.2 No. per 5 min | Group Mean of Total Testing Behavior [4]: 40.8 ± 34.3 No. per 5 min | Group Mean of Average Duration of Licking, Biting and Trembling [5]: 20.7 ± 10.5 No. per 5 min | Group Mean of Average Duration of Lifting [5]: 5.1 ± 6.2 No. per 5 min | Group Mean of Average Flinching Response [5]: 16.6 ± 7.3 No. per 5 min | Group Mean of Total Testing Behavior [5]: 25.8 ± 15.1 No. per 5 min | Group Mean of Average Duration of Licking, Biting and Trembling [6]: 22.9 ± 14.5 No. per 5 min | Group Mean of Average Duration of Lifting [6]: 6.1 ± 6.7 No. per 5 min | Group Mean of Average Flinching Response [6]: 22.3 ± 12.5 No. per 5 min | Group Mean of Total Testing Behavior [6]: 29.0 ± 16.4 No. per 5 min | Effect on the flinching response (in words): no effect | Effect on duration of paw lifting post-formalin injection (in words) (phase 1): no effects | Effect on all testing behaviors (lifting, licking, biting and trembling) post-formalin injection (in words) (phase 1): no any effects | Effect on duration of licking, biting and trembling post-formalin injection (in words) [7]: neither the control compounds (morphine and gabapentin) nor Compound 1A (at 3 mg/kg) had any effects | Effect on duration of paw lifting post-formalin injection (in words) (phase 2): significant effect on inhibiting | Effect on all testing behaviors (lifting, licking, biting and trembling) post-formalin injection (in words) (phase 2): significantly reduced | Overall effect post formalin-induced pains (in words) (phase 2 observation period, especially at 10 mg/kg and 30 mg/kg): anti-nociceptive effects | Activity in the formalin pain model (in words) (rat, in vivo): active

NCC1(CC(=O)O)CCCCC1 [Gabapentin, reference compound]
Group Mean of Average Duration of Licking, Biting and Trembling [8]: 26.9 ± 14.7 No. per 5 min | Group Mean of Average Duration of Lifting [8]: 39.8 ± 41.5 No. per 5 min | Group Mean of Average Flinching Response [8]: 11.5 ± 5.7 No. per 5 min | Group Mean of Total Testing Behavior [8]: 66.6 ± 34.8 No. per 5 min | Group Mean of Average Duration of Licking, Biting and Trembling [9]: 17.1 ± 9.1 No. per 5 min | Group Mean of Average Duration of Lifting [9]: 20.7 ± 23.2 No. per 5 min | Group Mean of Average Flinching Response [9]: 16.0 ± 13.3 No. per 5 min | Group Mean of Total Testing Behavior [9]: 37.8 ± 23.7 No. per 5 min | Effect on the flinching response (in words): no effect | Overall effect of control compounds on formalin induced pain model (in words) (control compounds): consistent effect of inhibiting nociceptive pain | Effect on duration of paw lifting post-formalin injection (in words) (phase 1): no effects | Effect on all testing behaviors (lifting, licking, biting and trembling) post-formalin injection (in words) (phase 1): no any effects | Effect on duration of licking, biting and trembling post-formalin injection (in words) [7]: neither the control compounds (morphine and gabapentin) nor Compound 1A (at 3 mg/kg) had any effects | Effect on duration of licking, biting and trembling post-formalin injection (in words) (phase 2, 100 mg/kg): significantly decreased | Effect on duration of paw lifting post-formalin injection (in words) (phase 2): significant effect on inhibiting | Effect on all testing behaviors (lifting, licking, biting and trembling) post-formalin injection (in words) (phase 2): significantly reduced

CN1CC[C@]23c4c5ccc(O)c4O[C@H]2[C@@H](O)C=C[C@H]3[C@H]1C5 [morphine, reference compound]
Group Mean of Average Duration of Licking, Biting and Trembling [10]: 20.5 ± 13.1 No. per 5 min | Group Mean of Average Duration of Lifting [10]: 37.8 ± 27.7 No. per 5 min | Group Mean of Average Flinching Response [10]: 10.8 ± 7.7 No. per 5 min | Group Mean of Total Testing Behavior [10]: 58.3 ± 37.7 No. per 5 min | Group Mean of Average Duration of Licking, Biting and Trembling [11]: 12.1 ± 7.2 No. per 5 min | Group Mean of Average Duration of Lifting [11]: 3.2 ± 4.4 No. per 5 min | Group Mean of Average Flinching Response [11]: 12.3 ± 6.9 No. per 5 min | Group Mean of Total Testing Behavior [11]: 15.3 ± 9.0 No. per 5 min | Effect on the flinching response (in words): no effect | Overall effect of control compounds on formalin induced pain model (in words) (control compounds): consistent effect of inhibiting nociceptive pain | Effect on duration of paw lifting post-formalin injection (in words) (phase 1): no effects | Effect on all testing behaviors (lifting, licking, biting and trembling) post-formalin injection (in words) (phase 1): no any effects | Effect on duration of licking, biting and trembling post-formalin injection (in words) [7]: neither the control compounds (morphine and gabapentin) nor Compound 1A (at 3 mg/kg) had any effects | Effect on duration of licking, biting and trembling post-formalin injection (in words) (phase 2, 1 mg/kg): significantly decreased | Effect on duration of paw lifting post-formalin injection (in words) (phase 2): significant effect on inhibiting | Effect on all testing behaviors (lifting, licking, biting and trembling) post-formalin injection (in words) (phase 2): significantly reduced
